The source of these data is paper PMC6572003 (The Journal of General Physiology, 2019).

Structures are written as SMILES. Residue numbers refer to the chain shown, from its start.

Test in all cases: two-electrode voltage clamp, Xenopus oocytes, current integral
Common to all, as to type: cell-based
On the technique in general: Two-electrode voltage clamp is typically applied to oocytes expressing channels or transporters.

In assay [1] the target is T1, human P2X4 (Homo sapiens, UniProt Q99571).
T1 sequence (Q99571 1-388): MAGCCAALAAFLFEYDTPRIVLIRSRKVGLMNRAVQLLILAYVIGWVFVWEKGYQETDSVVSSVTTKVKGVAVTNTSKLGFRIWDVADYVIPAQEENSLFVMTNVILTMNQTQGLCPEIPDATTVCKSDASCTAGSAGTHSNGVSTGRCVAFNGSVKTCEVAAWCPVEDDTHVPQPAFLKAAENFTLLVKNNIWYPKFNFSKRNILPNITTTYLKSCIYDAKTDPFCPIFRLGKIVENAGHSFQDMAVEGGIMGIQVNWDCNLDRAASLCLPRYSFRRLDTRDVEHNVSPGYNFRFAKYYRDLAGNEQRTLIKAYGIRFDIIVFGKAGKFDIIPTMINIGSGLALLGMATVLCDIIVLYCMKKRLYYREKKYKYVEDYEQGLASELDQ

Assay [2] concerns the target T1, human P2X4. The following applies: read-out: % inhibition at 250 μM.
Assay [3] deals with T2, human P2X4 (Homo sapiens, UniProt Q99571, E51A).
T2 sequence (Q99571 1-388 E51A): T1 sequence (Q99571 1-388) with E51A
The following applies: read-out: % inhibition at 250 μM.

The target of assay [4] is T3, human P2X4 (Homo sapiens, UniProt Q99571, M336A).
T3 sequence (Q99571 1-388 M336A): T1 sequence (Q99571 1-388) with M336A
The following applies: read-out: % inhibition at 250 μM.

Assay [5] addresses T4, human P2X4 (Homo sapiens, UniProt Q99571, D331A).
T4 sequence (Q99571 1-388 D331A): T1 sequence (Q99571 1-388) with D331A
The following applies: read-out: % inhibition at 250 μM.

Assay [6] deals with T1, human P2X4. The source holds these as a separate data set.
The target in assay [7] is T5, human P2X4 (Homo sapiens, UniProt Q99571, W50A).
T5 sequence (Q99571 1-388 W50A): T1 sequence (Q99571 1-388) with W50A
The following applies: read-out: % inhibition at 250 μM.

In general, EC50 refers to the midpoint of the concentration-response curve. Read a low EC50 as an effect from little substance. At human P2X4 [1], `Nc1ncnc2c1ncn2[C@@H]1O[C@H](COP(=O)(O)OP(=O)(O)OP(=O)(O)O)[C@@H](O)[C@H]1O` [ATP] had an EC50 of 4.8 ± 1.2 µM.

The inhibition is the relative decrease from the control value, in per cent. As for `C[C@H](CCC(=O)O)[C@H]1CC[C@H]2[C@@H]3CC[C@@H]4C[C@H](O)CC[C@]4(C)[C@H]3C[C@H](O)[C@]12C` [DCA, deoxycholic acid], the inhibition at 250 µM at human P2X4 [2] was determined as 73 ± 2%.

On to `C[C@H](CCC(=O)NCCS(=O)(=O)O)[C@H]1CC[C@H]2[C@@H]3[C@H](O)C[C@@H]4C[C@H](O)CC[C@]4(C)[C@H]3CC[C@]12C` [t-CDCA, tauro-chenodeoxycholic acid], for which the inhibition at 250 µM on human P2X4 [2] was determined as 25 ± 9%.

A word on the IC50: it is the point on the concentration scale where inhibition reaches its midpoint. In the case of `C[C@H](CCC(=O)NCCS(=O)(=O)O)[C@H]1CC[C@H]2[C@@H]3CC[C@@H]4C[C@H](O)CC[C@]4(C)[C@H]3C[C@H](O)[C@]12C` [t-DCA, tauro-deoxycholic acid], the inhibition at 250 µM is 74% on human P2X4 [3], 22% at human P2X4 [4], 38% on human P2X4 [5] and 63% at human P2X4 [7]. Moreover, the IC50 on human P2X4 [6] was ~160 µM.
